Results reported in patent US12516039B2, “N-linked isoquinoline amides as LRRK2 inhibitors, pharmaceutical compositions, and uses thereof” (Merck Sharp & Dohme LLC, priority 2020, dated 2026).

The compounds below were run against T1, GST-tagged truncated human mutant G2019S LRRK2 (Homo sapiens, UniProt Q5S007, G2019S) (assay: LRRK2 G2019S Km ATP LanthaScreen assay). Conditions: 134 μM ATP (Km ATP), LRRKtide substrate, mean of several tests.
T1 construct: GST-tagged truncated human mutant G2019S LRRK2; purchased Life Technologies Corporation (Carlsbad, CA)
T1 sequence (Q5S007 970-2527 G2019S limits assumed): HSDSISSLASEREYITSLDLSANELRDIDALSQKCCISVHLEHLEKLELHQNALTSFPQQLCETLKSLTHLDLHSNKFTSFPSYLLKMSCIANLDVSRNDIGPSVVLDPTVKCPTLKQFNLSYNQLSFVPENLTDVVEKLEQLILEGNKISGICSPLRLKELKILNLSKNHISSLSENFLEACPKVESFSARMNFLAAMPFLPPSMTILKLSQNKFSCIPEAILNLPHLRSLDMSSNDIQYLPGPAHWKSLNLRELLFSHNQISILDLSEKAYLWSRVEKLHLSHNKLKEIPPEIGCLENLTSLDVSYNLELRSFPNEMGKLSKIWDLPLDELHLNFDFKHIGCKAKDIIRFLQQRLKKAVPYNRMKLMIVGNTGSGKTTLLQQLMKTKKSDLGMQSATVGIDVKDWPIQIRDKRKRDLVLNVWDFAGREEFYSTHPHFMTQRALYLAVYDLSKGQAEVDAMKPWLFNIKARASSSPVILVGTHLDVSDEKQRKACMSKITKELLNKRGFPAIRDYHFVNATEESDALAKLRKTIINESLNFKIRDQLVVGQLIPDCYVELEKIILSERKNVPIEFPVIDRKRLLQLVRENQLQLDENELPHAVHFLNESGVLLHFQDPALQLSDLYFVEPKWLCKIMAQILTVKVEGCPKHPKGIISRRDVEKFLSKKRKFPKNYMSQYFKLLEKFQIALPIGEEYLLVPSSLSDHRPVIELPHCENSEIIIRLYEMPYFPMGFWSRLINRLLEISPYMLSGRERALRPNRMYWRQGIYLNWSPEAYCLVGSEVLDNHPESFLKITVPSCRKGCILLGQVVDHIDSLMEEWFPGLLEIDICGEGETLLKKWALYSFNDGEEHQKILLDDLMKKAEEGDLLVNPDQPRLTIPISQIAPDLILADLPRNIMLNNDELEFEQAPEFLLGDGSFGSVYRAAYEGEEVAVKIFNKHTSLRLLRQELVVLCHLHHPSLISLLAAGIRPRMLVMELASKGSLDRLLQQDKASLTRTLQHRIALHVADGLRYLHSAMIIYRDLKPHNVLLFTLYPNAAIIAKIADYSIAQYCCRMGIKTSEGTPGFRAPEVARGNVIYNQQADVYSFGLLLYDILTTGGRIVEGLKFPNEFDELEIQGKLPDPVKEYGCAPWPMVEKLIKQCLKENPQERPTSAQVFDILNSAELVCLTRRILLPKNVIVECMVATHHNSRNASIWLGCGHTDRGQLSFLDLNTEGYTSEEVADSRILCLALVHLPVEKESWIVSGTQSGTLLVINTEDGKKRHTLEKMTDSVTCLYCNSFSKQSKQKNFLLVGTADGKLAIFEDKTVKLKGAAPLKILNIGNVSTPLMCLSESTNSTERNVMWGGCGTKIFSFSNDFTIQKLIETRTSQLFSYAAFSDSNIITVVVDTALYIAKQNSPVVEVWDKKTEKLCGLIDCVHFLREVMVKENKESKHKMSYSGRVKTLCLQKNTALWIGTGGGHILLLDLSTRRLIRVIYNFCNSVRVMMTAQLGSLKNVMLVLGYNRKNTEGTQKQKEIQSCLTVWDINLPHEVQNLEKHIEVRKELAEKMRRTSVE
Format: biochemical
Procedure, shortened: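 IC50 values are means of repeat runs, fitted with a 4-parameter logistic to the 520/495 nm TR-FRET ratio from a Tb-labeled anti-phospho-LRRKtide antibody added with EDTA. Reactions ran 90 min at room temperature at Km ATP (134 μM) with fluorescein-LRRKtide, after 15-min compound preincubation with truncated GST-tagged G2019S LRRK2.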
For `CCC1(N2CCN(c3cc4cc(NC(=O)C5CC56CCOCC6)ncc4cc3C)CC2)COCC1O` (stereo not drawn) [Ex-6.12], the “LRRK2 pIC50” value was 9.67.
In the case of “(1R,2R or 1S,2S)-N-[6-[4-((3R,4R or 3S,4S)-4-fluoro-3-methyl-tetrahydrofuran-3-yl)piperazin-1-yl]-7-methyl-3-isoquinolyl]-2-(1-methylpyrazol-3-yl)cyclopropanecarboxamide [Ex-10.59]”, the “LRRK2 pIC50” value is reported as 10.09.

Same assay, conditions: 134 μM ATP (Km ATP), LRRKtide substrate, mean of several tests, read-out: LRRK2 pIC50 (converted)
For `CC1(N2CCN(c3cc4cc(NC(=O)C5CC6(CC6)C5)ncc4cc3Cl)CC2)COCC1O` (single isomer, unassigned) [Ex-2.17, N-(7-chloro-6-(4-((3R,4R or 3S,4S)-4-hydroxy-3-methyltetrahydrofuran-3-yl)piperazin-1-yl)isoquinolin-3-yl)spiro[2.3]hexane-5-carboxamide], the IC50 was 0.955 nM.
`CC1COC(=O)N1c1ccc2cnc(NC(=O)C3CC3)cc2c1` (single isomer, unassigned) [Ex-4.1, (R or S)-N-(6-(4-methyl-2-oxooxazolidin-3-yl)isoquinolin-3-yl)cyclopropanecarboxamide] was tested, and the IC50 was 3.47 nM.
`C[C@]1(O)COC[C@@]1(C)N1CCN(c2cc3cc(NC(=O)[C@@H]4CC45CCOCC5)ncc3cc2Cl)CC1` (single isomer, unassigned) [Ex-17.1, (R) or (S)-N-(7-chloro-6-((3R,4R) or (3S,4S)-4-(4-hydroxy-3,4-dimethyltetrahydrofuran-3-yl)piperazin-1-yl)isoquinolin-3-yl)-6-oxaspiro[2.5]octane-1-carboxamide] showed an IC50 of 0.0813 nM.
With `CC1(C)CC2(CCO1)CC2C(=O)Nc1cc2cc(N3CCN(C4(C)COCC4O)CC3)c(Cl)cc2cn1` (single isomer, unassigned) [Ex-7.3] the IC50 was 3.72 nM.
`CC1(N2CCN(c3cc4cc(NC(=O)C5CC56CCOC6)ncc4cc3Cl)CC2)COCC1O` (single isomer, unassigned) [Ex-2.11, (1R,3R or 1S,3S)-N-(7-chloro-6-(4-((3R,4R or 3S,4S)-4-hydroxy-3-methyltetrahydrofuran-3-yl)piperazin-1-yl)isoquinolin-3-yl)-5-oxaspiro[2.4]heptane-1-carboxamide] was tested, and the IC50 was 1.45 nM.
`CCC1C(C(=O)Nc2cc3cc(N4CCN(C5(C)COCC5F)CC4)c(Cl)cc3cn2)C1c1ccccn1` (single isomer, unassigned) [Ex-10.90, (1R,2R,3R, or 1R,2S,3R, or 1S,2R,3S, or 1S,2S,3S)-N-[7-chloro-6-[4-((3R,4R or 3S,4S)-4-fluoro-3-methyl-tetrahydrofuran-3-yl)piperazin-1-yl]-3-isoquinolyl]-2-ethyl-3-(2-pyridyl)cyclopropanecarboxamide] was tested, and the IC50 was 2.04 nM.
`Cc1cc2cnc(NC(=O)C3C4CCOCC43)cc2cc1N1CCN(C2(C)CCOC2)CC1` (single isomer, unassigned) [Ex-10.48, (1S,6R,7R, 1R,6S,7R, or 1R, 6S,7S, or 1S,6S,7S)-N-(7-methyl-6-(4-((R or S)-3-methyltetrahydrofuran-3-yl)piperazin-1-yl)isoquinolin-3-yl)-3-oxabicyclo[4.1.0]heptane-7-carboxamide] was tested, and the IC50 was 17.4 nM.
`CC1(N2CCN(c3cc4cc(NC(=O)C5CC56CC6(F)F)ncc4cc3Cl)CC2)COCC1O` (single isomer, unassigned) [Ex-3.2] showed an IC50 of 1.07 nM.
`C[C@H]1CN(C2(C)COCC2O)CCN1c1cc2cc(NC(=O)C3CC34CCOCC4)ncc2cc1Cl` (single isomer, unassigned) [Ex-14.1, N-(7-chloro-6-((2R or 2S)-4-(4-(3R,4R or 3S,4S)-hydroxy-3-methyltetrahydrofuran-3-yl)-2-methylpiperazin-1-yl)isoquinolin-3-yl)-6-oxaspiro[2.5]octane-1-carboxamide] showed an IC50 of 87.1 nM.
`Cc1cc2cnc(NC(=O)C3CCOC(C)(C)C3)cc2cc1N1CCN(C2(C)CCOC2)CC1` (single isomer, unassigned) [Ex-10.42, (4R or 4S)-2,2-dimethyl-N-[7-methyl-6-[4-((R or S)-3-methyltetrahydrofuran-3-yl)piperazin-1-yl]-3-isoquinolyl]tetrahydropyran-4-carboxamide] showed an IC50 of 0.525 nM.
`O=C(Nc1cc2cc(N3CCN(C4COCC4O)CC3)c(Cl)cc2cn1)C1CC12CCOCC2` (single isomer, unassigned) [Ex-2.5, (R or S)-N-(7-chloro-6-(4-((3R,4R or 3S,4S)-4-hydroxytetrahydrofuran-3-yl)piperazin-1-yl)isoquinolin-3-yl)-6-oxaspiro[2.5]octane-1-carboxamide] was tested, and the IC50 was 41.7 nM.
For `Cc1cc2cnc(NC(=O)C3CCOC(C)(C)C3)cc2cc1N1CCN(C2(C)CCOC2)CC1` (single isomer, unassigned) [Ex-10.44, (4R or 4S)-2,2-dimethyl-N-[7-methyl-6-[4-((R or S)-3-methyltetrahydrofuran-3-yl)piperazin-1-yl]-3-isoquinolyl]tetrahydropyran-4-carboxamide], the IC50 was 209 nM.
Work on `CC1(c2ccccn2)CC1C(=O)Nc1cc2cc(N3CCN(C4(C)COCC4O)CC3)c(Cl)cc2cn1` (single isomer, unassigned) [Ex-11.1, (1R,2R)(3R,4R)— or (1R,2S)(3R,4R)— or (1S,2R)(3R,4R)— or (1S,2S)(3R,4R)— or (1R,2R)(3S,4S)— or (1R,2S)(3S,4S)— or (1S,2R)(3S,4S)— or (1S,2S)(3S,4S)-N-(7-chloro-6-(4-(4-hydroxy-3-methyltetrahydrofuran-3-yl)piperazin-1-yl)isoquinolin-3-yl)-2-methyl-2-(pyridin-2-yl)cyclopropane-1-carboxamide] yielded an IC50 of 0.0813 nM.
`O=C(Nc1cc2cc(N3CCN(C4COCC4O)CC3)c(Cl)cc2cn1)C1CC12CCOCC2` (single isomer, unassigned) [Ex-2.6, (R or S)-N-(7-chloro-6-(4-((3R,4R or 3S,4S)-4-hydroxytetrahydrofuran-3-yl)piperazin-1-yl)isoquinolin-3-yl)-6-oxaspiro[2.5]octane-1-carboxamide] was tested, and the IC50 was 3.09 nM.
In the case of `CC1(C2CCOC2)CC1C(=O)Nc1cc2cc(N3CCN(C4(C)COCC4O)CC3)c(Cl)cc2cn1` (single isomer, unassigned) [Ex-10.82, (1R,2R or 1S,2S, or 1R,2S, or 1S,2R)-N-[7-chloro-6-[4-((3R,4R or 3S,4S)-4-hydroxy-3-methyl-tetrahydrofuran-3-yl)piperazin-1-yl]-3-isoquinolyl]-2-methyl-2-tetrahydrofuran-3-yl-cyclopropanecarboxamide], the IC50 is reported as 0.1 nM.
In the case of `CC1(N2CCN(c3cc4cc(NC(=O)C5CC5c5ccccn5)ncc4cc3F)CC2)COCC1O` (single isomer, unassigned) [Ex-2.23, (1R,2R or 1S,2S)-N-[7-fluoro-6-[4-[(3R,4R or 3S,4S)-4-hydroxy-3-methyl-tetrahydrofuran-3-yl]piperazin-1-yl]-3-isoquinolyl]-2-(2-pyridyl)cyclopropanecarboxamide], the IC50 is reported as 0.316 nM.
For `Cc1cc2cnc(NC(=O)C3CC34CCOCC4)cc2cc1N1CCN(C2(C)COCC2O)C[C@@H]1C` (single isomer, unassigned) [Ex-15.2, (R or S)-N-(6-((2R or 2S)-4-(4-(3R,4R or 3S,4S)-hydroxy-3-methyltetrahydrofuran-3-yl)-2-methylpiperazin-1-yl)-7-methylisoquinolin-3-yl)-6-oxaspiro[2.5]octane-1-carboxamide], the IC50 was 0.0813 nM.
For `CC1(N2CCN(c3cc4cc(NC(=O)C5CC5c5cccs5)ncc4cc3Cl)CC2)COCC1O` (single isomer, unassigned) [Ex-10.14, (1R,2R or 1R,2S)-N-[7-chloro-6-[4-((3R,4R or 3S,4S)-4-hydroxy-3-methyl-tetrahydrofuran-3-yl)piperazin-1-yl]-3-isoquinolyl]-2-(2-thienyl)cyclopropanecarboxamide], the IC50 was 4.27 nM.
In the case of `O=C(Nc1cc2cc(N3CCN(C4COCC4O)CC3)c(Cl)cc2cn1)C1CC1` (single isomer, unassigned) [Ex-1.3, (3R,4R or 3S,4S)-N-(7-chloro-6-(4-(4-hydroxytetrahydrofuran-3-yl)piperazin-1-yl)isoquinolin-3-yl)cyclopropanecarboxamide], the IC50 is reported as 1.95 nM.
`CCc1cc2cnc(NC(=O)C3CC34CCOCC4)cc2cc1N1CCN(C2(C)COCC2O)CC1` (single isomer, unassigned) [Ex-12, (R or S)-N-(7-ethyl-6-(4-(4-(3R,4R or 3S,4S)-hydroxy-3-methyltetrahydrofuran-3-yl)piperazin-1-yl)isoquinolin-3-yl)-6-oxaspiro[2.5]octane-1-carboxamide] showed an IC50 of 0.525 nM.
In the case of `CC1(N2CCN(c3cc4cc(NC(=O)C5CCC5C#N)ncc4cc3Cl)CC2)COCC1F` (single isomer, unassigned) [Ex-10.67, (1R,2R or 1S,2S)-N-[7-chloro-6-[4-((3R,4R or 3S,4S)-4-fluoro-3-methyl-tetrahydrofuran-3-yl)piperazin-1-yl]-3-isoquinolyl]-2-cyano-cyclobutanecarboxamide], the IC50 is reported as 0.102 nM.
`CC1C(C(=O)Nc2cc3cc(N4CCN(C5(C)COCC5F)CC4)c(Cl)cc3cn2)C1c1ccn(C)n1` (single isomer, unassigned) [Ex-10.16] gave an IC50 of 7.94 nM.
`N#CC1CCN(c2cc3cc(NC(=O)C4CC4c4cncnc4)ncc3cc2Cl)CC1` (single isomer, unassigned) [Ex-5.17] showed an IC50 of 0.0813 nM.
Compound `Cc1cc2cnc(NC(=O)C3CC34CCOC4)cc2cc1N1CCN(C2(C)COCC2O)CC1` (single isomer, unassigned) [Ex-6.8, (1R, 3S or 1S,3R, or 1R,3S, or 1S,3S)-N-(6-(4-((3R, 4R or 3S,4S)-4-hydroxy-3-methyltetrahydrofuran-3-yl)piperazin-1-yl)-7-methylisoquinolin-3-yl)-5-oxaspiro[2.4]heptane-1-carboxamide] has an IC50 of 631 nM.
`CC1(N2CCN(c3cc4cc(NC(=O)C5CC5c5ccco5)ncc4cc3Cl)CC2)COCC1O` (single isomer, unassigned) [Ex-10.29, (1R,2R or 1S,2S)-N-[7-chloro-6-[4-((3R,4R or 3S,4S)-4-hydroxy-3-methyl-tetrahydrofuran-3-yl)piperazin-1-yl]-3-isoquinolyl]-2-(2-furyl)cyclopropanecarboxamide] was tested, and the IC50 was 0.275 nM.
